From PMC7066191, “Exploiting loss of heterozygosity for allele-selective colorectal cancer chemotherapy” (Nature Communications, 2020)

Tests used:
Assay in all cases: biochemical
Design in all cases: scanMAX competition binding; kinase recovered on immobilized ligand quantified by qPCR, per cent of control
Conditions in all cases: read-out: APA (POC)
RPS6KA6_Dom1 = molecular target: T1, RPS6KA6_Dom1 (Homo sapiens, UniProt Q9UK32)
T1 construct: gene RPS6KA6; Kin.Dom.1 N-terminal
Description: (§1) The binding affinities of APA and NAPA were evaluated in the scanMAX^sm Kinase Assay Panel (DiscoverX) at a final concentration of 10 µM. The compounds were tested for steric or allosteric binding to kinases in solution. The kinase was captured from the solution through an immobilized kinase-specific ligand and the kinase recovery was quantified. The amount of recovered kinase in the presence or absence of APA or NAPA was measured by quantitative PCR compared with the kinase capture in absence of the compound. Any compound reducing the binding affinity of a kinase to the respective immobilized ligand was scored as a potential hit, and the binding affinity of the compound toward a kinase is interpreted as the difference between the kinase recovery in the absence and presence of the compound. The inhibitory binding constants (Kd) of APA and NAPA to AURKA were evaluated in a KdELECT Kinase Assay (DiscoverX). […] Data acquisition followed the same methodology as for the scanMAX^sm Kinase Assay Panel. 6 Supplementary Figure 4. Kinome inhibition profiles of APA and its NAT2 metabolite NAPA identifies preferential APA kinase targets and differential binding to AURKA a The human kinome was assessed for binding affinity to APA and NAPA at 10 µM concentration (468 kinases in the scanMAX Kinase Assay Panel, DiscoverX). The family stratification of kinases is shown as a cladogram. Circles visualize the binding affinity of NAPA and APA towards each kinase with a higher intensity of blue corresponding to a higher binding affinity. […] One single data point from one experiment at a concentration 18.5 µM of APA was excluded as an outlier. c Thermal shift assay for human recombinant AURKA in the presence of APA and the selective inhibitor S1451. Melting temperatures were obtained by calculating the first derivative of the tryptophan fluorescence ratio at 350 nm and 330 nm and are shown for AURKA in the presence of S1451 (blue) and APA (yellow). Structural similarities between APA and kinase inhibitors[27] prompted investigation of protein kinases as mediators of APA toxicity. […] To enrich for kinase interactions that could explain the preferential killing of slow NAT2 cells, we compared the binding affinity of each kinase with APA and NAPA, selected 44 targets with preferential binding to APA and excluded kinases non-essential for cell survival and those not expressed in CRC cells (Supplementary Fig. 4A, Supplementary Table 4). […] The growth inhibition of RKO and DLD-1 following siRNA-mediated AURKA knockdown (Figs. 3c, d) reflected the relative efficiency of protein downregulation (Supplementary Fig. 5C, D). […] (Supplementary Fig. 4C). AURKA regulates cell cycle progression through association with other centrosome and spindle-associated proteins. Its activation requires auto-phosphorylation at Thr288 and ensures spindle pole integrity, centrosome duplication as well as adequate chromosomal alignment and segregation, while its inhibition leads to multipolar spindles with acentrosomal poles[28],[31]. […] S1451 reduced the fraction of pAURKA levels by >90% regardless of NAT2 expression (Fig. 3f and Su

TNIK = TNIK (Homo sapiens, UniProt Q9UKE5)
Description: as §1

MKNK1 = MKNK1 (Homo sapiens, UniProt Q9BUB5)
Description: as §1

HIPK3 = HIPK3 (Homo sapiens, UniProt Q9H422)
Description: as §1

JAK3_JH1 = molecular target: T2, JAK3_JH1 (Homo sapiens, UniProt P52333)
T2 construct: gene JAK3; JH1 domain
Description: as §1

CDK7 = CDK7 (Homo sapiens, UniProt P50613)
Description: as §1

HIPK1 = HIPK1 (Homo sapiens, UniProt Q86Z02)
Description: as §1

CSF1R = CSF1R (Homo sapiens, UniProt P07333)
Description: as §1

HIPK2 = HIPK2 (Homo sapiens, UniProt Q9H2X6)
Description: as §1

RPS6KA1_Dom1 = molecular target: T3, RPS6KA1_Dom1 (Homo sapiens, UniProt Q15418)
T3 construct: gene RPS6KA1; Kin.Dom.1 N-terminal
Description: as §1

CLK4 = CLK4 (Homo sapiens, UniProt Q9HAZ1)
Description: as §1

PIP5K1A = PIP5K1A (Homo sapiens, UniProt Q99755)
Description: as §1

MKNK2 = MKNK2 (Homo sapiens, UniProt Q9HBH9)
Description: as §1

RIOK3 = RIOK3 (Homo sapiens, UniProt O14730)
Description: as §1

NTRK3 = NTRK3 (Homo sapiens, UniProt Q16288)
Description: as §1

Sequence of CSF1R (P07333 whole entry): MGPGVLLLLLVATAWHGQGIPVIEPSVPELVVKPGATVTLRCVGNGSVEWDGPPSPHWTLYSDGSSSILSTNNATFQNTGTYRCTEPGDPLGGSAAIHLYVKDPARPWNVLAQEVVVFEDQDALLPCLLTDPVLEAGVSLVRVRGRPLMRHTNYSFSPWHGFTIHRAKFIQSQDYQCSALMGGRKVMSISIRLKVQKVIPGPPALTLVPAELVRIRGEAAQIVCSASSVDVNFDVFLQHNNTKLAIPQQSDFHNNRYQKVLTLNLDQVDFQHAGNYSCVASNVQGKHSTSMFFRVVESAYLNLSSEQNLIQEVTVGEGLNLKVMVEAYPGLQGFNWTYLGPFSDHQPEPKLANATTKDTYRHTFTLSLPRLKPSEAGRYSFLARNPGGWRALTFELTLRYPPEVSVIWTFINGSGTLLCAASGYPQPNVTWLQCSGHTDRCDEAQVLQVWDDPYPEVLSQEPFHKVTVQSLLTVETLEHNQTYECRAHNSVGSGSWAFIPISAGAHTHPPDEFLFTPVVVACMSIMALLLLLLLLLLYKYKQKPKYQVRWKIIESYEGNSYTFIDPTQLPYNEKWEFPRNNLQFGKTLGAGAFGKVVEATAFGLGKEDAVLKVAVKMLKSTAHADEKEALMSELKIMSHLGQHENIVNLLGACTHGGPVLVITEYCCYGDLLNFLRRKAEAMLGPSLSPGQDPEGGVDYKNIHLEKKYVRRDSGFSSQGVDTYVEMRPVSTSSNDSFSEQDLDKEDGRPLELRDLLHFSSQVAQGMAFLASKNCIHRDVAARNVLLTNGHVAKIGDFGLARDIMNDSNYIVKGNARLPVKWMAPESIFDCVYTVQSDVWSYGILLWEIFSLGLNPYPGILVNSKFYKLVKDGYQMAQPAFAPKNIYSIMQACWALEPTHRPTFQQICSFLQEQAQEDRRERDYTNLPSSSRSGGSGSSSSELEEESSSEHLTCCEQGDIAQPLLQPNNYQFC
Sequence of HIPK3 (Q9H422 whole entry): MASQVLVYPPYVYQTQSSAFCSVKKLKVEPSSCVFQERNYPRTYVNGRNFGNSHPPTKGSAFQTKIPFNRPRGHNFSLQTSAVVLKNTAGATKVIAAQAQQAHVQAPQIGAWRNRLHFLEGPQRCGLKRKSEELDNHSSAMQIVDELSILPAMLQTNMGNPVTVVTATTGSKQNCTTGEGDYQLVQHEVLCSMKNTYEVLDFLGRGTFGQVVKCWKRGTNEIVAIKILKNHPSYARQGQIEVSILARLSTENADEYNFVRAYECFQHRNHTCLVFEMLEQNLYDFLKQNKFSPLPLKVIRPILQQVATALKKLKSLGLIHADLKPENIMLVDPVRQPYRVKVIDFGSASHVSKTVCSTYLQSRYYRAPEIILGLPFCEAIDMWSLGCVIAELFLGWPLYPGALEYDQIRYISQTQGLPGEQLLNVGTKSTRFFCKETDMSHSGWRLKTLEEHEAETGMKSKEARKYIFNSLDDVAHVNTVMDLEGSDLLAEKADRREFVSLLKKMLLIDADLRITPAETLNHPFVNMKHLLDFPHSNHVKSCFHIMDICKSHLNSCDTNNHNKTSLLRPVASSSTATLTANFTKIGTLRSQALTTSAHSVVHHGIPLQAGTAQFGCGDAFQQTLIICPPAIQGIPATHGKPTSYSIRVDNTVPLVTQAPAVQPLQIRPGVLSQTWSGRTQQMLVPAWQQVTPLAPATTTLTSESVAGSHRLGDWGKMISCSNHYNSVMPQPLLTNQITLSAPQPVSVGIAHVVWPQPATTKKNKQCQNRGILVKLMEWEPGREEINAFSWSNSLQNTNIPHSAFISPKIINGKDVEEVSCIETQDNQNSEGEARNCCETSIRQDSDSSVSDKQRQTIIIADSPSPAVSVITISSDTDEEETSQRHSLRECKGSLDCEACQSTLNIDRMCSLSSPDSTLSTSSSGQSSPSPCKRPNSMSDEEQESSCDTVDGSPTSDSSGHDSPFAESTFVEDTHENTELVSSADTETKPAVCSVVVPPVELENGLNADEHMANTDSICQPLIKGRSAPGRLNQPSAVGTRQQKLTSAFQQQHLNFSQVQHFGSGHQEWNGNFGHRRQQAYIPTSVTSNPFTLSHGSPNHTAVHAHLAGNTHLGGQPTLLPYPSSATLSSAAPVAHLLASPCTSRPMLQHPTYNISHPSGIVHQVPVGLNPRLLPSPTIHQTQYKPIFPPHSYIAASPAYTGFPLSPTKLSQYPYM
Sequence of HIPK2 (Q9H2X6 whole entry): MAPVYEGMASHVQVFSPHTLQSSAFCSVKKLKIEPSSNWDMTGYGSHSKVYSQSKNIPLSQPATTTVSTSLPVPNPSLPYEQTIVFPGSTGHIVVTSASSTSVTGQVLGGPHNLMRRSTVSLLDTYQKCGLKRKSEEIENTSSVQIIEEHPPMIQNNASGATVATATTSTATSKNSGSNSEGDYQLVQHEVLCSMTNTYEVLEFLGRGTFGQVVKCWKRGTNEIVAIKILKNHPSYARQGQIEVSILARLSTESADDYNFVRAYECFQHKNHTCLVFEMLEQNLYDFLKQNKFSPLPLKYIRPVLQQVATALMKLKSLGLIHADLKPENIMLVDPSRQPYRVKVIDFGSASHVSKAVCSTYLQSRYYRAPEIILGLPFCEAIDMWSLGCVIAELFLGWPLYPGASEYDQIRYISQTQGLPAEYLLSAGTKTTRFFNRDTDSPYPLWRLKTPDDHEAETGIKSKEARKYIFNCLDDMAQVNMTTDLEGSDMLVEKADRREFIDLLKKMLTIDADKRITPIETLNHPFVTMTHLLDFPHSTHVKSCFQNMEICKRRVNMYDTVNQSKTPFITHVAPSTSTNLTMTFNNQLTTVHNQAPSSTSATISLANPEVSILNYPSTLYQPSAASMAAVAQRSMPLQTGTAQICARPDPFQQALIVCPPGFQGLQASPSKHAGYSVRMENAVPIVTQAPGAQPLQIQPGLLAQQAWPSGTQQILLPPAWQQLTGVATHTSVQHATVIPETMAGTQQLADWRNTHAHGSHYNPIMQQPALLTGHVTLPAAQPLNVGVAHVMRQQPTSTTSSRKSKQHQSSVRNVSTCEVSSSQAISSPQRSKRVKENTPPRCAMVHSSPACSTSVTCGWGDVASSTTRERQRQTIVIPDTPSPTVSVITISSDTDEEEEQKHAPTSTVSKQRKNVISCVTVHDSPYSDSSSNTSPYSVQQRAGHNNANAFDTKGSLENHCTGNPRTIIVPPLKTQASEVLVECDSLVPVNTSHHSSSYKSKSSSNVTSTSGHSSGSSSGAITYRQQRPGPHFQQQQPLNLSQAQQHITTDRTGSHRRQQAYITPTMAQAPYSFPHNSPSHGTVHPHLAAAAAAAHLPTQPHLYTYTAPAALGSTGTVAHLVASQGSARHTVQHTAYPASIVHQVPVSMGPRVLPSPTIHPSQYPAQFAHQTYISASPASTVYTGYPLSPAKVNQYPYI
Sequence of TNIK (Q9UKE5 whole entry): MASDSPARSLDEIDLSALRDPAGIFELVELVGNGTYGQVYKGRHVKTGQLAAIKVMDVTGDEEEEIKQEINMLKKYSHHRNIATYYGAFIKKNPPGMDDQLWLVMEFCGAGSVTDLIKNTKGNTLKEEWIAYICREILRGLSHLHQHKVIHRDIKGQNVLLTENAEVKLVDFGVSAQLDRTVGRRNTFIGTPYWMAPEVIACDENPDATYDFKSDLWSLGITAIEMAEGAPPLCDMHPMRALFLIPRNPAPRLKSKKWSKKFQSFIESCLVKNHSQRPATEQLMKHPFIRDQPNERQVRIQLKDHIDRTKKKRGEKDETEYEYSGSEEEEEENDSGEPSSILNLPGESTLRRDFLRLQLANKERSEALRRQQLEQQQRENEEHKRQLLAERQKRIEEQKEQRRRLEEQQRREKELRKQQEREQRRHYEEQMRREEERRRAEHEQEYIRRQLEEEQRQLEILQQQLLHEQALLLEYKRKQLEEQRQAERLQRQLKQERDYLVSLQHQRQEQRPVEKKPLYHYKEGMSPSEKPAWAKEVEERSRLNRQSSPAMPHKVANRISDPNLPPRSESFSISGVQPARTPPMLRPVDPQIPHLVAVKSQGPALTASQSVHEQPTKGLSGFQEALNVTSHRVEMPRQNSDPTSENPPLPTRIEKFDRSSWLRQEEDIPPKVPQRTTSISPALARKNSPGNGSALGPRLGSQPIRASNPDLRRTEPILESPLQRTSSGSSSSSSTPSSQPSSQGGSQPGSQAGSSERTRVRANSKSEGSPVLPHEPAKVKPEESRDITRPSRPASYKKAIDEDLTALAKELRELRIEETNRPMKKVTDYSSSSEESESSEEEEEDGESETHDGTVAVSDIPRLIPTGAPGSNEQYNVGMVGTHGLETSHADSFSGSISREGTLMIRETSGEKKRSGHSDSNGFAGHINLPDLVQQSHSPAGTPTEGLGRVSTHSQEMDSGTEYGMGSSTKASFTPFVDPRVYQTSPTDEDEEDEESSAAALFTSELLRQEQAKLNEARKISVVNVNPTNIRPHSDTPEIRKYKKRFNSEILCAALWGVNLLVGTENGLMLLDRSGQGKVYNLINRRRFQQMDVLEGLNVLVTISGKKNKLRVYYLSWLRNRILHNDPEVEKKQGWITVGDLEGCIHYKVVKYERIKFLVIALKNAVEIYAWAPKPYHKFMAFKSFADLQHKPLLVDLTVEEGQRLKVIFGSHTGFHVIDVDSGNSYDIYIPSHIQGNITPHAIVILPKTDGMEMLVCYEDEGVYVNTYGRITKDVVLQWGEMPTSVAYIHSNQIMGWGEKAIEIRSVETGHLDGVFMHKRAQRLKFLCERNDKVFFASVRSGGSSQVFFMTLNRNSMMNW
Sequence of CDK7 (P50613 whole entry): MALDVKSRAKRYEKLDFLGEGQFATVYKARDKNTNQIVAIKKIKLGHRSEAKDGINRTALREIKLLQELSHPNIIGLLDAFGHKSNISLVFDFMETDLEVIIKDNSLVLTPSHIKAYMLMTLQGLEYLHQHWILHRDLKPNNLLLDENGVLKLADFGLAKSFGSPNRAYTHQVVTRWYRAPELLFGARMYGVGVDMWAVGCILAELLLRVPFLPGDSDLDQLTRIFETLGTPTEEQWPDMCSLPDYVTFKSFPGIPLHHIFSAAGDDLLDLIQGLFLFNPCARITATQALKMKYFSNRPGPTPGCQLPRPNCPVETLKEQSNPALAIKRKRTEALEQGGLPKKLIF

## COc1cc(Nc2cncc(-c3ccc(N)cc3)n2)cc(OC)c1OC [APA, 6-(4-aminophenyl)-N-(3,4,5-trimethoxyphenyl)pyrazin-2-amine]
RPS6KA6_Dom1
  remaining binding at 10 µM: 58%
TNIK
  remaining binding at 10 µM: 39%
MKNK1
  remaining binding at 10 µM: 37%
HIPK3
  remaining binding at 10 µM: 42%
JAK3_JH1
  remaining binding at 10 µM: 19%
CDK7
  remaining binding at 10 µM: 49%
HIPK1
  remaining binding at 10 µM: 12%
CSF1R
  remaining binding at 10 µM: 3.9%
HIPK2
  remaining binding at 10 µM: 22%
RPS6KA1_Dom1
  remaining binding at 10 µM: 56%
CLK4
  remaining binding at 10 µM: 27%
PIP5K1A
  remaining binding at 10 µM: 52%
MKNK2
  remaining binding at 10 µM: 26%
RIOK3
  remaining binding at 10 µM: 21%
NTRK3
  remaining binding at 10 µM: 11%
